Patent publication US11433038B2, “High concentration medicant solutions for treating neurological disorders” (Cerebral Therapeutics, Inc., priority 2017, dated 2022)
“Also recorded” adds a separate entry of the source. Structures can show the parent of a compound that is named as a salt.

Legend:
[1] = pH of aqueous sodium valproate solutions; type: physicochemical
[2] = test system: human subjects; assay: subject-reported effects during direct brain (CSF) administration of valproate; type: in vivo
[3] = valproate concentration in blood serum and cerebrospinal fluid after administration was stopped (FIG. 1-3); type: in vivo; details: human subjects, FIG. 2
[4] = reported solubility limit; cited from earlier work
[5] = pH titration of sodium valproate solutions (5 mL) with 25 mM HCl (FIG. 7)
[6] = solubility of sodium valproate in water; details: early emulsion experiments
[7] = on the order of; cited from earlier work
[8] = 150 mg/mL sodium valproate, 5 mL, 25 mM HCl
[9] = 0.4% sodium citrate (13.6 mM) in 150 mg/mL (0.9 M) sodium valproate

SMILES: CCCC(CCC)C(=O)[O-].[Na+] [sodium valproate]
- pH of solution ([1]; 150 mg/mL sodium valproate in water): approximately 8.3
- pH of solution ([1]; more concentrated solutions (>350 mg/mL)): above 9
- perception of body temperature ([2]; human subjects receiving valproate to the brain): always cold
- nausea at therapeutic level ([2]; human subjects, on reaching a therapeutic level): feeling of nauseous which seems to pass over time
- concentration in cerebrospinal fluid over time [3]: drops quickly
- solubility limits in water, commonly reported [4]: 50 to 100 mg/mL
- volume of 25 mM HCl at which the pH hits the pKa ([5]; 10 mM sodium valproate, 5 mL): 0.6 mL
- pH at start of titration ([5]; 10 mM sodium valproate, 5 mL, before acid): 6.6
- pH after 0.6 mL of acid ([5]; 10 mM sodium valproate, 5 mL, 0.6 mL of 25 mM HCl): 4.81
- pH after 0.7 mL of acid ([5]; 10 mM sodium valproate, 5 mL, 0.7 mL of 25 mM HCl): 4.74
- pH after 1 mL of acid ([5]; 10 mM sodium valproate, 5 mL, 1 mL of 25 mM HCl added in 0.1 mL increments): 4.36
- change in pH on titration ([5]; 150 mg/mL sodium valproate): minimal
- pH at last point of titration curve [5, 8]: 7.30
- pH at second-to-last point of titration curve [5, 8]: 7.34
- buffering of concentrated solutions ([5]; concentrated solutions of sodium valproate): strongly buffer solutions at pH>8

SMILES: CCCC(CCC)C(=O)O [valproic acid]
- behaviour of emulsified droplets of pure valproic acid (liquid) in water [6]: dissolving into the water

SMILES: O=C(O)CC(O)(CC(=O)O)C(=O)O [sodium citrate]
- effect of sodium citrate on buffer capacity [5, 9]: does not provide any measurable increase in buffering capacity above pH 7; also recorded: virtually no effect
- effect of sodium citrate on initial pH [5, 9]: nor does it significantly change the initial pH

SMILES: NCC(CC(=O)O)c1ccc(Cl)cc1 (stereo not shown) [Baclofen]
- half-life [7]: five
